Assay results as given in ChEMBL document CHEMBL3877311, “Discovery of a novel series of N-hydroxypyridone derivatives protecting astrocytes against hydrogen peroxide-induced toxicity via improved mitochondrial functionality” (Bioorg Med Chem, 2017).
The source made the active and inactive calls. The calls are words filed in the database; no cut-off is given here.

Assays:
Astrocyte [1] = assay: Cytoprotective activity in Sprague-Dawley rat primary astrocytes assessed as inhibition of H2O2-induced decrease in oxygen consumption rate at 1 uM; format: functional, cell-based
Rattus norvegicus = species on record: Rattus norvegicus; assay: Cytotoxicity against Sprague-Dawley rat primary astrocytes assessed as cell death up to 10 uM by LDH release assay; format: toxicity; conditions: astrocyte
Astrocyte [2] = assay: Inhibition of H2O2-induced mitochondrial metabolic dysfunction in Sprague-Dawley rat primary astrocytes assessed as stimulation of glycolytic metabolism at 1 uM; format: functional, cell-based
[3] = Effect on ATP turn over-linked oxygen consumption rate in Sprague-Dawley rat primary astrocytes at 1 uM; format: ADME, cell-based; conditions: astrocyte
[4] = Cytoprotective activity in Sprague-Dawley rat primary astrocytes assessed as inhibition of H2O2-induced cell death at 0.001 to 10 uM by LDH release assay relative to control; format: functional, Astrocyte
Astrocyte [5] = assay: Inhibition of H2O2-induced mitochondrial metabolic dysfunction in Sprague-Dawley rat primary astrocytes assessed as stimulation of extracellular acidification rate at 1 uM; format: functional, cell-based
Astrocyte [6] = assay: Inhibition of H2O2-induced mitochondrial metabolic dysfunction in Sprague-Dawley rat primary astrocytes by resazurin-dye based presto blue assay; format: functional, cell-based
Astrocyte [7] = assay: Inhibition of H2O2-induced mitochondrial metabolic dysfunction in Sprague-Dawley rat primary astrocytes at 0.001 to 10 uM by resazurin-dye based presto blue assay relative to control; format: functional
[8] = Effect on basal extracellular acidification rate in Sprague-Dawley rat primary astrocytes at 1 uM; format: ADME, cell-based; conditions: astrocyte
[9] = Effect on basal oxygen consumption rate in Sprague-Dawley rat primary astrocytes at 1 uM; format: ADME, cell-based; conditions: astrocyte
[10] = Induction of mitochondrial membrane depolarization in Sprague-Dawley rat primary astrocytes at 1 uM measured every 5 mins for 2 hrs by TMRM dye based fluorescence assay; format: cell-based; conditions: astrocyte
Astrocyte [11] = assay: Cytoprotective activity in Sprague-Dawley rat primary astrocytes assessed as inhibition of H2O2-induced mitochondrial membrane depolarization at 1 uM measured every 5 mins for 2 hrs by TMRM dye based fluorescence assay; format: functional, cell-based
[12] = Cytoprotective activity in Sprague-Dawley rat primary astrocytes assessed as inhibition of H2O2-induced cell death by LDH release assay; format: functional, cell-based; conditions: Astrocyte

Compound	inhibition (Astrocyte [1])	Activity (Rattus norvegicus)	inhibition (Astrocyte [2])	Activity [3]	Imax [4] [%]	inhibition (Astrocyte [5])	IC50 (Astrocyte [6]) [nM]	Imax (Astrocyte [7]) [%]	Activity [8]	Activity [9]	Activity [10]	inhibition (Astrocyte [11])	IC50 [12] [nM]
COc1ccccc1-c1ccc(-c2cc(C)cc(=O)n2O)cc1	Active	Non-Toxic	Active	Non-Toxic	58.8	Active	340	58.6	Non-Toxic	Non-Toxic	Non-Toxic	Active	156
Cc1cc(-c2cccc(F)c2)n(O)c(=O)c1								0.75					
Cc1cc(C2CCCCC2)n(O)c(=O)c1 [CICLOPIROX]					50.3		330	43.72				Active	250
